In patent publication US20240383852A1, “ANTI-VIRAL COMPOUNDS” (INFEX Therapeutics Limited, priority 2021, published 2024):
Counter-ions that a name gives are not always drawn. Like-named read-outs stand apart in the source and are kept apart here.

Assays:
SARS-CoV-2 PLpro = biological target: T1, SARS-CoV-2 PLpro (Severe acute respiratory syndrome coronavirus 2, UniProt P0DTD1); assay: biochemical
T1 construct: containing 60 nM papain-like protease

[1] = tested on: human Hep G2 cells (ATCC HB-8065); assay: Cytotoxicity in Hep G2 cells (CellTiter-Glo); assay type: cell-based
SARS-CoV-2 = assay: Anti-viral potency in VERO E6 cells (cytopathic viral activity, crystal violet); assay type: cell-based; conditions: Severe acute respiratory syndrome coronavirus 2, Vero C1008, 48 h, read-out: SARS-COV-2 EC50 (μM)
[2] = 60 nM papain-like protease, 50 μM Z-RLRGG-AMC, pH 7.5, 37° C., read-out: SARS-CoV-2 PLpro IC50
[3] = Hep G2 cells, 100 μM test article, 24-hour exposure

Compound | IC50 (SARS-CoV-2 PLpro; [2]) [µM] | % Cell Viability [1, 3] [%] | EC50 (SARS-CoV-2) [µM] | IC50 (SARS-CoV-2 PLpro) [µM] | % Cell Viability ([1]; human, 24 h, 100 μM) [%]
COc1cc(-c2cnn(C3CC3)c2)cc([C@@H](C)NC(=O)c2cc(N3CCN(C)CC3)ccc2C)c1 [Example 221, N-[(1R)-1-[3-(1-Cyclopropylpyrazol-4-yl)-5-methoxy-phenyl]ethyl]-2-methyl-5-(4-methylpiperazin-1-yl)benzamide] | < 2 | 74.9 | < 5 | – | –
COc1ccc([C@@H](C)NC(=O)c2cc(N3C[C@H]4C[C@@H]3CN4C)ccc2C)cc1-c1cnn(C)c1 [Example 227, N-[(1R)-1-[4-Methoxy-3-(1-methylpyrazol-4-yl)phenyl]ethyl]-2-methyl-5-[(1R,4R)-5-methyl-2,5-diazabicyclo[2.2.1]heptan-2-yl]benzamide] | < 2 | 89.9 | < 5 | – | –
COc1cc(-c2cn(C)nc2C)cc([C@@H](C)NC(=O)c2cc(N3C[C@H]4C[C@@H]3CN4C)ccc2C)c1 [Example 230, N-[(1R)-1-[3-(1,3-Dimethylpyrazol-4-yl)-5-methoxy-phenyl]ethyl]-2-methyl-5-[(1R,4R)-5-methyl-2,5-diazabicyclo[2.2.1]heptan-2-yl]benzamide] | < 2 | 38.3 | < 5 | – | –
COc1cc(-c2cn(C)nc2C)cc([C@@H](C)NC(=O)c2cc(N3CCN(C)CC3)ccc2C)c1 [Example 233, N-[(1R)-1-[3-(1,3-Dimethylpyrazol-4-yl)-5-methoxy-phenyl]ethyl]-2-methyl-5-(4-methylpiperazin-1-yl)benzamide] | < 2 | 88.9 | < 5 | – | –
COc1cc(-c2cnn(C)c2)cc([C@@H](C)NC(=O)c2cc(N3CCNCC3)ccc2C)c1 [Example 235, N-[(1R)-1-[3-Methoxy-5-(1-methylpyrazol-4-yl)phenyl]ethyl]-2-methyl-5-piperazin-1-yl-benzamide] | < 2 | 90.6 | < 5 | – | –
COc1ccc(-c2cnn(C)c2)cc1[C@@H](C)NC(=O)c1cc(N2CCN(C)CC2)ccc1C [Example 239, N-[(1R)-1-[2-Methoxy-5-(1-methylpyrazol-4-yl)phenyl]ethyl]-2-methyl-5-(4-methylpiperazin-1-yl)benzamide] | < 2 | 101.6 | < 5 | – | –
COc1cc(-c2cnn(C)c2)cc([C@@H](C)NC(=O)c2cc(N3C[C@H]4C[C@@H]3CN4C)ccc2C)c1 [Example 244, N-[(1R)-1-[3-Methoxy-5-(1-methylpyrazol-4-yl)phenyl]ethyl]-2-methyl-5-[(1R,4R)-5-methyl-2,5-diazabicyclo[2.2.1]heptan-2-yl]benzamide] | < 2 | 67.1 | < 5 | – | –
COc1cc(-c2cnn(C)c2)cc([C@@H](C)NC(=O)c2cc(N3CCN(CC4CC4)CC3)ccc2C)c1 [Example 245, 5-[4-(Cyclopropylmethyl)piperazin-1-yl]-N-[(1R)-1-[3-methoxy-5-(1-methylpyrazol-4-yl)phenyl]ethyl]-2-methyl-benzamide] | < 2 | 58.4 | < 5 | – | –
COc1ccc([C@@H](C)NC(=O)c2cc(N3CCN(C)CC3)ccc2C)cc1-c1nccs1 [Example 251, N-[(1R)-1-(4-Methoxy-3-thiazol-2-yl-phenyl)ethyl]-2-methyl-5-(4-methylpiperazin-1-yl)benzamide] | < 2 | 63.2 | < 5 | – | –
Cc1ccc(N2CCN(C)CC2)cc1C(=O)N[C@H](C)c1ccc(Cl)c(-c2cnn(C)c2)c1 [Example 252, N-[(1R)-1-[4-Chloro-3-(1-methylpyrazol-4-yl)phenyl]ethyl]-2-methyl-5-(4-methylpiperazin-1-yl)benzamide] | < 2 | 49.4 | < 5 | – | –
COc1cc(-c2cnn(C)c2C)cc([C@@H](C)NC(=O)c2cc(N3CCN(C)CC3)ccc2C)c1 [Example 253, N-[(1R)-1-[3-(1,5-Dimethylpyrazol-4-yl)-5-methoxy-phenyl]ethyl]-2-methyl-5-(4-methylpiperazin-1-yl)benzamide hydrochloride salt] | < 2 | 89.3 | < 5 | – | –
COc1ccc([C@@H](C)NC(=O)c2cc(N3CCNCC3)ccc2C)cc1-c1cnn(C)c1 [Example 260, N-[(1R)-1-[4-Methoxy-3-(1-methylpyrazol-4-yl)phenyl]ethyl]-2-methyl-5-piperazin-1-yl-benzamide] | < 2 | 91.1 | < 15 | – | –
COc1ccc([C@@H](C)NC(=O)c2cc(N3CC4CNCC4C3)ccc2C)cc1-c1cnn(C)c1 (stereo partly drawn) [Example 261, 5-(2,3,3a,4,6,6a-Hexahydro-1H-pyrrolo[3,4-c]pyrrol-5-yl)-N-[(1R)-1-[4-methoxy-3-(1-methylpyrazol-4-yl)phenyl]ethyl]-2-methyl-benzamide] | < 2 | 49.2 | < 15 | – | –
COc1ccc([C@@H](C)NC(=O)c2cc(N3C[C@H]4CC[C@@H](C3)N4)ccc2C)cc1-c1cnn(C)c1 [Example 266, 5-[(1S,5R)-3,8-Diazabicyclo[3.2.1]octan-3-yl]-N-[(1R)-1-[4-methoxy-3-(1-methylpyrazol-4-yl)phenyl]ethyl]-2-methyl-benzamide hydrochloride salt] | – | – | < 5 | < 2 | 61.1
COc1cc(-c2cnn(C)c2)cc([C@@H](C)NC(=O)c2cc(N3C[C@H]4CC[C@@H](C3)N4)ccc2C)c1 [Example 272, 5-[(1R,5S)-3,8-diazabicyclo[3.2.1]octan-3-yl]-N-[(1R)-1-[3-methoxy-5-(1-methyl-1H-pyrazol-4-yl)phenyl]ethyl]-2-methylbenzamide] | – | – | < 5 | < 2 | 74.3
COCCOc1ccc([C@@H](C)NC(=O)c2cc(N3CCN(C)CC3)ccc2C)cc1-c1cnn(C)c1 [Example 280, N-[(1R)-1-[4-(2-Methoxyethoxy)-3-(1-methylpyrazol-4-yl)phenyl]ethyl]-2-methyl-5-(4-methylpiperazin-1-yl)benzamide] | < 2 | 76.7 | < 5 | – | –
COc1cc(-c2cc(C(=O)N(C)C)n(C)c2)cc([C@@H](C)NC(=O)c2cc(N3CCN(C)CC3)ccc2C)c1 [Example 289, 4-[3-Methoxy-5-[(1R)-1-[[2-methyl-5-(4-methylpiperazin-1-yl)benzoyl]amino]ethyl]phenyl]-N,N,1-trimethyl-pyrrole-2-carboxamide] | < 2 | 59.5 | < 5 | – | –
COc1cc([C@@H](C)NC(=O)c2cc(N3CCN(C)CC3)ccc2C)ccc1OCCN1CCOCC1 [Example 293, N-[(1R)-1-[3-Methoxy-4-(2-morpholinoethoxy)phenyl]ethyl]-2-methyl-5-(4-methylpiperazin-1-yl)benzamide] | < 2 | 102.3 | < 5 | – | –
COc1ccc([C@@H](C)NC(=O)c2cc(N3CCN(C)CC3)ccc2C)cc1OCC1CC1 [Example 296, N-[(1R)-1-[3-(Cyclopropylmethoxy)-4-methoxy-phenyl]ethyl]-2-methyl-5-(4-methylpiperazin-1-yl)benzamide] | < 2 | 76.1 | < 15 | – | –
COc1ccc([C@@H](C)NC(=O)c2cc(C3CCN(C)CC3)ccc2C)cc1-c1cnn(C)c1 [Example 300, N-[(1R)-1-[4-Methoxy-3-(1-methylpyrazol-4-yl)phenyl]ethyl]-2-methyl-5-(1-methyl-4-piperidyl)benzamide] | < 2 | 74.7 | < 5 | – | –
COc1cc([C@@H](C)NC(=O)c2cc(N3CCN(C)CC3)ccc2C)ccc1-c1cnn(C)c1 [Example 306, N-[(1R)-1-[3-Methoxy-4-(1-methylpyrazol-4-yl)phenyl]ethyl]-2-methyl-5-(4-methylpiperazin-1-yl)benzamide] | < 2 | 88.4 | < 5 | – | –
